{"source": "patent US11571484B2", "about": "“Compositions that target tumor-associated macrophages and methods of use therefor” (Sanford Burnham Prebys Medical Discovery Institute, priority 2017, dated 2023)", "tested_on": "MRC1/CD206-expressing tumor-associated macrophages (MEMs) in 4T1 tumors", "assay": "Free peptide homing and immunofluorescence in the orthotopic 4T1 breast tumor model", "details": "30 nmoles i.v.", "protocol": "(SEQ ID NO: 5) control peptide were injected intravenously into 4T1 tumor-bearing mice and allowed to circulate for 2 h. Mice were then sacrificed and tumor and tissues were analyzed by immunofluorescence using rabbit anti-FAM (green) and rat anti-CD206 or rat anti-TIE2 (red) antibodies, and counterstained with DAPI. All images were taken under the same imaging conditions. FAM-UNO accumulated in macrophages within tumors and lymph nodes positive for CD206 staining (A, B, C) and TIE2 (D, and H: Blow up of D). […] To ascertain that anti-CD206 is capable of detecting CD206 in the liver, an image was acquired with longer exposure time from an uninjected animal (FIG. 25). […] Green: FAM-peptide; Red: CD206 or TIE2, Blue: DAPI. Representative fields from multiple sections prepared from at least 3 tumors (n≥3 mice) are shown.\nTumor models were induced according to protocols approved by the Estonian Ministry of Agriculture, Committee of Animal Experimentation (permit #48). For the 4T1 breast model, 8-week old female Balb/c mice were injected in the mammary fat pad with 10^6 cells dispersed in 50 μL of PBS. For homing studies, mice were used 10 days later, when the tumor had reached ˜150 mm^3. For MCF-7 breast model, 8-week old female nude mice were implanted with an estrogen pellet, and 1 week later inoculated with 5×10^6 MCF-7 cells in 100 μL of cold Matrigel (BD Biosciences, CA, USA). Mice were used for homing studies three weeks later (tumor volume˜150 mm^3). For the metastatic gastric carcinoma, 10^6 MKN45-P cells in PBS were injected intraperitoneally in 8-week old female nude mice. Mice were used for homing studies two weeks later. For the metastatic melanoma model, 2×10^5 B16F10 cells were injected intravenously in 100 μL of PBS in C57 BL6 mice. The mice were used for homing studies 10 days after. For the angiogenic glioblastoma model, WT-GBM 24, 7×10^5 cells were stereotactically injected in the right striatum of Fox/Nu mice 2 mm lateral and posterior of bregma of 2.5 mm deep. The mice were used for homing studies 6-7 days after the injection.\nFor free peptide homing studies, mice were injected intravenously with 30 nmoles of FAM-peptides in 100 μL of PBS. For nanoparticle homing studies-FAM-UNO—NP-PTX-, mice were injected intravenously in mice bearing MCF-7 breast tumors with 1 mg of Polymer in 100 μL pf PBS and allowed to circulate for 6 h. For tissue collection, the mice were anesthetized and the tissues collected and immediately placed in 4% cold PFA and left overnight at 4-C. Tissues were washed with PBS for 2 h at room temperature and cryoprotected with sucrose 15% at 4-C overnight and then in sucrose 30% at 4·C overnight. The tumor and the control organs were placed together in the same block with OCT compound (Leica Biosystems, Wetzlar, Germany), snap-frozen in isopentane, and sectioned at 10 μm. FAM was detected using Rabbit anti-FITC (Invitrogen, CA, USA. Catalog # A-889) at a dilution of 1/100 and using Alexa Fluor-546 anti-rabbit antibody (Invitrogen, Ca, USA. Catalog # A-11035) at a dilution of 1/200. CD31 was detected using rat anti-mouse CD31 (BD Biosciences, CA, USA. Catalog #: 553370), TIE2 was detected using rat anti-mouse TIE2 (Biolegend, CA, USA. Catalog #124001), CD209 was detected using rat anti-mouse CD209 (Biolegend, CA, USA. Catalog #147802), HLA ABC was detected using rat anti Human HLA ABC (Bio-Rad, CA, USA. Product code MCA485G), and CD206 was detected using ratanti-mouse CD206 (Bio-Rad, CA, USA. Product code MCA2235GA); using 1/100 primary antibody dilution and Alexa Fluor-647 anti-Rat antibody (Invitrogen, CA, USA. Catalog #21247) at 1/200 dilution. To quantify FAM signal from confocal images, the green channel of images taken by using 20× magnification objective was opened with ImageJ, converted to 8-bit grayscale and the integrated pixel intensity was measured. Different regions of tumors from three different mice were used.", "note": "Ends that are not written are not given here. FAM = 5(6)-carboxyfluorescein; Ahx = NCCCCCC(=O)O", "data": [{"substance": "FAM-CSPGAK: FAM-labeled linear CSPGAK (SEQ ID NO: 6) (not fully specified; FAM label)", "values": [{"measurement": "accumulation in MEMs / tumor homing", "setting": "2 h circulation", "value": "accumulated in MEMs in orthotopic 4T1 breast tumor-bearing mice at levels comparable to FAM-UNO"}]}, {"substance": "FAM-UNO: FAM-labeled UNO peptide CSPGAKVRC (SEQ ID NO: 1); 5(6)-carboxyfluorescein with 6-aminohexanoic acid spacer at the N-terminus ({FAM-Ahx}-CSPGAKVRC; cysteine pairing not given here)", "values": [{"measurement": "time the signal remained readily detectable in MEMs after administration", "value": "up to 12 h"}, {"measurement": "accumulation in liver, heart, lungs and spleen", "setting": "2 h", "value": "low"}, {"measurement": "internalization in MEMs (high resolution confocal microscopy)", "setting": "2 h", "value": "internalized in MEMs"}, {"measurement": "overlap with CD209 in sections from 4T1 tumors", "setting": "2 h", "value": "only a moderate overlap with CD209"}, {"measurement": "accumulation in MEMs / tumor homing", "setting": "2 h circulation", "value": "accumulated in MEMs in tumors and in sentinel lymph nodes"}, {"measurement": "cells positive for FAM-UNO that were also positive for CD206, in tumors", "setting": "2 h circulation", "value": 96, "unit": "%"}, {"measurement": "FAM fluorescence in the kidneys", "setting": "2 h time point", "value": "FAM-fluorescence was observed in the kidneys"}]}]}
